Literature values in patent publication US12708633B2, “Cannabidiol-dominant formulations, methods of manufacturing, and uses thereof” (Tilray Brands, Inc., priority 2021, dated 2026).

Columns and labels:
[1] = due to high intestinal permeability and low aqueous solubility
[2] = humans

In the case of `C=C(C)[C@@H]1CCC(C)=C[C@H]1c1c(O)cc(CCCCC)cc1O` [CBD, Cannabidiol], the “Biopharmaceutical Classification System (BCS) class” value [1] is given as “Class II” and the oral bioavailability [2] is given as “low”.
